Assay results reported in patent US12351570B2 (MERCK PATENT GMBH, priority 2018, dated 2025).
pIC50: −log10 of the molar value.

System: MDA-MB-231 cells
Assay: Extracellular lactate production inhibition after 4 h, MDA-MB-231
Conditions: Homo sapiens, MDA-MB-231

Row | Compound | pIC50
1 | O=C(O)c1ncc(C#Cc2ccccc2NS(=O)(=O)c2cccc3c(Cl)ccnc23)c2ccccc12 [Compound 441, 4-{2-[2-(4-chloroquinoline-8-sulfonamido)phenyl]ethynyl}iso-quinoline-1-carboxylic acid] | 6.00 to 7.00
2 | COc1ccc(S(=O)(=O)Nc2ccccc2C#Cc2ccc(C(N)=O)cc2)c2ccccc12 [Compound 261, 4-[2-(4-Methoxy-naphthalene-1-sulfonylamino)-phenylethynyl]-benzamide] | 4.00 to 6.00
3 | Cc1cc(C#Cc2ccccc2NS(=O)(=O)c2cccc3ccccc23)cnc1C(=O)O [Compound 74, 3-methyl-5-{2-[2-(naphthalene-1-sulfonamido)phenyl]ethynyl}pyridine-2-carboxylic acid] | 6.00 to 7.00
4 | Cc1ccccc1S(C)(=O)=Nc1ccccc1C#Cc1ccc(C(=O)O)nc1 (centres unmarked) [Compound 438, 5-[2-(2-{[methyl(2-methylphenyl)oxo-λ6-sulfanylidene]amino}phenyl)ethynyl] pyridine-2-carboxylic acid] | 4.00 to 6.00
5 | COc1ccc(S(C)(=O)=Nc2ccccc2C#Cc2ccc(C(=O)O)nc2)cc1 (centres unmarked) [Compound 428, 5-[2-(2-{[(4-methoxyphenyl)(methyl)oxo-λ6-sulfanylidene]amino}phenyl)ethynyl] pyridine-2-carboxylic acid] | 4.00 to 6.00
6 | COc1ccc(S(=O)(=O)Nc2ccc(Cl)cc2C#Cc2ccc(C(=O)O)nc2)c(C)c1C [Compound 387, 5-[5-Chloro-2-(4-methoxy-2,3-dimethyl-benzenesulfonylamino)-phenylethynyl]-pyridine-2-carboxylic acid] | 7.00 to 8.00
7 | CS(=O)(=Nc1ccccc1C#Cc1ccc(C(=O)O)nc1)c1cccc2cccnc12 (centres unmarked) [Compound 429, 5-[2-(2-{[methyl(oxo)(quinolin-8-yl)-λ6-sulfanylidene]amino}phenyl)ethynyl] pyridine-2-carboxylic acid] | 4.00 to 6.00
8 | CCNc1cc(C#Cc2ccccc2NS(=O)(=O)c2ccc(OC)c(C)c2C)cnc1C(=O)O [Compound 379, 3-(ethylamino)-5-{2-[2-(4-methoxy-2,3-dimethylbenzenesulfonamido)phenyl]ethynyl}pyridine-2-carboxylic acid] | 7.00 to 8.00
9 | Cc1ccc(C#Cc2ccc(C(=O)O)cc2)c(NS(=O)(=O)c2ccc3ccccc3c2)n1 [Compound 41, 4-{2-[6-methyl-2-(naphthalene-2-sulfonamido)pyridin-3-yl]ethynyl}benzoic acid] | 6.00 to 7.00
10 | O=C(O)c1ccc(C#Cc2ccccc2NS(=O)(=O)c2ccc3c(c2)OCCO3)cc1 [Compound 250, 4-[2-(2,3-Dihydro-benzo[1,4]dioxine-6-sulfonylamino)-phenylethynyl]-benzoic acid] | 4.00 to 6.00
11 | CS(=O)(=Nc1ccccc1C#Cc1ccc(C(=O)O)nc1)c1ccc(F)cc1 (centres unmarked) [Compound 431, 5-[2-(2-{[(4-fluorophenyl)(methyl)oxo-λ6-sulfanylidene]amino}phenyl)ethynyl] pyridine-2-carboxylic acid] | 4.00 to 6.00
12 | O=CN(Cc1ccccc1C#Cc1ccc(C(=O)O)nc1)c1ccc2ccccc2c1 [Compound 202, 5-[2-(2-{[N-(naphthalen-2-yl)formamido]methyl}phenyl)-ethynyl]pyridine-2-carboxylic acid] | 7.00 to 8.00
13 | COc1cc(C(=O)N(C)C)ncc1C#Cc1ccccc1NS(=O)(=O)c1ccc(OC)c2cccnc12 [Compound 223, 4-methoxy-5-{2-[2-(5-methoxyquinoline-8-sulfonamido)phenyl]ethynyl}-N,N-dimethylpyridine-2-carboxamide] | 4.00 to 6.00
14 | COc1ccc(S(=O)(=O)Nc2ccccc2C#Cc2ccc(C(=O)O)c(C)c2)c2ccccc12 [Compound 18, 4-{2-[2-(4-methoxynaphthalene-1-sulfonamido)phenyl]ethynyl}-2-methylbenzoic acid] | 6.00 to 7.00
15 | COc1c(C#Cc2ccccc2NS(=O)(=O)c2ccc(OC)c3cccnc23)cnc(C(=O)O)c1C [Compound 370, 4-Methoxy-5-[2-(5-methoxy-quinoline-8-sulfonylamino)-phenylethynyl]-3-methyl-pyridine-2-carboxylic acid] | 6.00 to 7.00
16 | COc1cc(C(=O)OCC(O)CO)ncc1C#Cc1ccccc1NS(=O)(=O)c1c(C)ccc2cccnc12 (centres unmarked) [Compound 408, 2,3-dihydroxypropyl 4-methoxy-5-{2-[2-(7-methylquinoline-8-sulfonamido)phenyl]ethynyl}pyridine-2-carboxylate] | 7.00 to 8.00
17 | NCCOCCOCCOc1ccc(C#Cc2ccc(C(=O)O)nc2)c(NS(=O)(=O)c2cccc3cccnc23)c1 [Compound 332, 5-[4-{2-[2-(2-Amino-ethoxy)-ethoxy]-ethoxy}-2-(quinoline-8-sulfonylamino)-phenylethynyl]-pyridine-2-carboxylic acid] | 4.00 to 6.00
18 | COc1ccc(S(=O)(=O)Nc2ccc(Br)cc2C#Cc2cnc(C(=O)O)c3ccccc23)c(C)c1C [Compound 398, 4-{2-[5-bromo-2-(4-methoxy-2,3-dimethylbenzenesulfonamido)phenyl]ethynyl}isoquinoline-1-carboxylic acid] | 7.00 to 8.00
19 | O=CN(Cc1cccc2cccnc12)c1ccccc1C#Cc1ccc(C(=O)O)nc1 [Compound 178, 5-[2-(2-{N-[(quinolin-8-yl)methyl]formamido}phenyl)ethynyl] pyridine-2-carboxylic acid] | 6.00 to 7.00
20 | COc1cc(S(=O)(=O)Nc2ccccc2C#Cc2ccc(C(=O)O)cc2)cc2ccccc12 [Compound 258, 4-[2-(4-Methoxy-naphthalene-2-sulfonylamino)-phenylethynyl]-benzoic acid] | 6.00 to 7.00
21 | O=C(O)c1ccc(C#Cc2ccccc2NS(=O)(=O)c2cc(Cl)c(Cl)s2)cc1 [Compound 275, 4-{2-[2-(4,5-dichlorothiophene-2-sulfonamido)phenyl]ethynyl}benzoic acid] | 4.00 to 6.00
22 | COc1cc(C(=O)O)ncc1C#Cc1cc(Cl)ccc1NS(=O)(=O)c1ccc(OC)c2cccnc12 [Compound 360, 5-{2-[5-chloro-2-(5-methoxyquinoline-8-sulfonamido)phenyl]ethynyl}-4-methoxypyridine-2-carboxylic acid] | 8.00 to 9.00
23 | COc1cccc(S(C)(=O)=Nc2ccccc2C#Cc2ccc(C(=O)O)nc2)c1 (centres unmarked) [Compound 434, 5-[2-(2-{[(3-methoxyphenyl)(methyl)oxo-λ6-sulfanylidene]amino}phenyl)ethynyl] pyridine-2-carboxylic acid] | 6.00 to 7.00

The next lines start with the values.

Row | pIC50 | Compound
24 | 6.00 to 7.00 | O=C(O)c1ccc(C#Cc2ccccc2NS(=O)(=O)C2=Cc3ccccc3CC2)cn1 [Compound 81, 5-{2-[2-(3,4-dihydronaphthalene-2-sulfonamido)phenyl]ethynyl}pyridine-2-carboxylic acid]
25 | 4.00 to 6.00 | Cn1ccc2cccc(S(=O)(=O)Nc3ccccc3C#Cc3ccc(C(=O)O)nc3)c21 [Compound 296, 5-{2-[2-(1-methyl-1H-indole-7-sulfonamido)phenyl]ethynyl}pyridine-2-carboxylic acid]
26 | 6.00 to 7.00 | O=C(O)c1ccc(C#Cc2ccccc2NS(=O)(=O)N2CCc3ccccc32)cn1 [Compound 126, 5-(2-{2-[(2,3-dihydro-1H-indole-1-sulfonyl)amino]phenyl}ethynyl)pyridine-2-carboxylic acid]
27 | 7.00 to 8.00 | Cc1ccc2cccnc2c1S(=O)(=O)Nc1cc(Cl)c(Cl)cc1C#Cc1ccc(C(=O)O)nc1 [Compound 204, 5-{2-[4,5-dichloro-2-(7-methylquinoline-8-sulfonamido)phenyl]ethynyl}pyridine-2-carboxylic acid]
28 | 6.00 to 7.00 | Cc1ccc2cccnc2c1S(=O)(=O)Nc1ccccc1C#Cc1ccc(C(=O)OCCOCCO)nc1 [Compound 409, 2-(2-hydroxyethoxy)ethyl 5-{2-[2-(7-methylquinoline-8-sulfonamido)phenyl]ethynyl}pyridine-2-carboxylate]
29 | 4.00 to 6.00 | O=C(O)c1ccc(C#Cc2ccccc2NS(=O)(=O)c2ccc(Cl)s2)cn1 [Compound 304, 5-{2-[2-(5-chlorothiophene-2-sulfonamido)phenyl]ethynyl}pyridine-2-carboxylic acid]
30 | 6.00 to 7.00 | CCOc1cc(C#Cc2ccccc2NS(=O)(=O)c2c(C)ccc3cccnc23)cnc1C(=O)O [Compound 188, 3-ethoxy-5-{2-[2-(7-methylquinoline-8-sulfonamido)phenyl]ethynyl}pyridine-2-carboxylic acid]
31 | 7.00 to 8.00 | COc1ccc(S(=O)(=O)Nc2ccc(F)cc2C#Cc2ccc(C(=O)O)nc2)c2ncccc12 [Compound 185, 5-{2-[5-fluoro-2-(5-methoxyquinoline-8-sulfonamido)phenyl]ethynyl}pyridine-2-carboxylic acid]
32 | 4.00 to 6.00 | CNc1ccnc2c(S(=O)(=O)Nc3ccccc3C#Cc3ccc(C(=O)O)nc3)cccc12 [Compound 423, 5-[2-(4-Methylamino-quinoline-8-sulfonylamino)-phenylethynyl]-pyridine-2-carboxylic acid]
33 | 7.00 to 8.00 | O=C(O)c1ccc(C#Cc2ccccc2NS(=O)(=O)c2c(Br)ccc3ccc(Cl)nc23)cn1 [Compound 315, 5-{2-[2-(7-bromo-2-chloroquinoline-8-sulfonamido)phenyl]ethynyl}pyridine-2-carboxylic acid]
34 | 8.00 to 9.00 | CCc1ccc2cccnc2c1S(=O)(=O)Nc1ccccc1C#Cc1ccc(C(=O)O)nc1 [Compound 342, 5-{2-[2-(7-ethylquinoline-8-sulfonamido)phenyl]ethynyl}pyridine-2-carboxylic acid]
35 | 4.00 to 6.00 | COc1cnc2cc(S(=O)(=O)Nc3ccccc3C#Cc3ccc(C(=O)O)cc3)ccc2n1 [Compound 82, 4-{2-[2-(2-methoxyquinoxaline-6-sulfonamido)phenyl]ethynyl}benzoic acid]
36 | 7.00 to 8.00 | Cc1ccc2cccnc2c1S(=O)(=O)Nc1ccccc1C#Cc1cnc(C(=O)O)cc1-c1ccccc1 [Compound 226, 5-{2-[2-(7-methylquinoline-8-sulfonamido)phenyl]ethynyl}-4-phenylpyridine-2-carboxylic acid]
37 | 4.00 to 6.00 | O=C(O)c1ccc(C#Cc2ccccc2S(=O)(=O)Nc2cccc3ccccc23)cn1 [Compound 450, 5-(2-{2-[(naphthalen-1-yl)sulfamoyl]phenyl}ethynyl)pyridine-2-carboxylic acid]
38 | 4.00 to 6.00 | O=C(O)c1ccc(C#Cc2c(F)cccc2NS(=O)(=O)c2cccc3cccnc23)cn1 [Compound 101, 5-{2-[2-fluoro-6-(quinoline-8-sulfonamido)phenyl]ethynyl}pyridine-2-carboxylic acid]
